Results on 5 compounds are retold here after PubChem BioAssay AID1963431 (Molecular Pharmacology Branch, DTP, NCI, 2024).

The subject of the assay is Rh18 complex spheroid viability, percent test/control. The assay is described as follows: Anticancer human tumor Rh18 cell line growth inhibition [Asc].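 For all read-outs here: spheroids exposed to compound for 7 days.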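 For viability, T/C: 100% = DMSO vehicle control wells.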 As to conditions: for viability, T/C: stronger effect = lower value. The essentials: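 Complex solid-tumor spheroids incorporating human endothelial and mesenchymal stem cells received single agents or combinations over half-log dilution ranges anchored to clinical Cmax.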

Setting [1] is: curve of first compound, second compound 0.1 µM.
Setting [2] is: curve of first compound, second compound 0.316 µM.
The mark [3] stands for this setting: curve of first compound, second compound 1 µM.
Where [4] appears, read: second compound 0.1 µM, first compound 0.0316 µM.
[5] abbreviates: second compound 0.1 µM, first compound 0.1 µM.
The mark [6] stands for this setting: second compound 0.1 µM, first compound 0.316 µM.
The mark [7] stands for this setting: second compound 0.1 µM, first compound 1 µM.
Where [8] appears, read: second compound 0.316 µM, first compound 0.0316 µM.
[9] abbreviates: second compound 0.316 µM, first compound 0.1 µM.
Where [10] appears, read: second compound 0.316 µM, first compound 0.316 µM.
Where [11] appears, read: second compound 0.316 µM, first compound 1 µM.
[12] abbreviates: second compound 1 µM, first compound 0.0316 µM.
[13] abbreviates: second compound 1 µM, first compound 0.1 µM.
[14] abbreviates: second compound 1 µM, first compound 0.316 µM.
The mark [15] stands for this setting: second compound 1 µM, first compound 1 µM.
Setting [16] is: curve of first compound, second compound 3.16 µM.
The mark [17] stands for this setting: curve of first compound, second compound 10 µM.
The mark [18] stands for this setting: second compound 0.1 µM, first compound 0.00316 µM.
[19] abbreviates: second compound 0.1 µM, first compound 0.01 µM.
[20] abbreviates: second compound 0.316 µM, first compound 0.00316 µM.
[21] abbreviates: second compound 0.316 µM, first compound 0.01 µM.
The mark [22] stands for this setting: second compound 1 µM, first compound 0.00316 µM.
Where [23] appears, read: second compound 1 µM, first compound 0.01 µM.
[24] abbreviates: second compound 3.16 µM, first compound 0.00316 µM.
Setting [25] is: second compound 3.16 µM, first compound 0.01 µM.
Setting [26] is: second compound 3.16 µM, first compound 0.0316 µM.
The mark [27] stands for this setting: second compound 3.16 µM, first compound 0.1 µM.
Where [28] appears, read: second compound 3.16 µM, first compound 0.316 µM.
The mark [29] stands for this setting: second compound 3.16 µM, first compound 1 µM.
The mark [30] stands for this setting: second compound 10 µM, first compound 0.00316 µM.
The mark [31] stands for this setting: second compound 10 µM, first compound 0.01 µM.
Where [32] appears, read: second compound 10 µM, first compound 0.0316 µM.
Where [33] appears, read: second compound 10 µM, first compound 0.1 µM.
Where [34] appears, read: second compound 10 µM, first compound 0.316 µM.
The mark [35] stands for this setting: second compound 10 µM, first compound 1 µM.

The viability, T/C is the result in the treated group divided by that in the control group, in per cent. As usually defined, the IC50 is the concentration that gives 50% inhibition.

“And” between values parts separate entries of the source, which are not always exact repeats. Equal values may be shown once. Some results are limits rather than exact numbers.

Regarding `C#Cc1c(F)ccc2cc(O)cc(-c3ncc4c(N5CC6CCC(C5)N6)nc(OCC56CCCN5CC(F)C6)nc4c3F)c12` (centres undefined), the viability, T/C is 79.3% and 89.2% and 129% (compound 0.0316 µM); 74.3% and 82.3% and 122% (compound 0.1 µM); 71.5% and 63.9% and 81.2% (compound 0.316 µM); 91.2% and 75.4% and 66.3% (compound 1 µM); 87.4% and 64.3% and 106% (compound 3.16 µM); 43.4% and 60.4% and 67.7% (compound 10 µM). Also, the IC50 (curve of compound) is 8120 nM and > 10000 nM.
As for `O=C(c1cc(Cc2n[nH]c(=O)c3ccccc23)ccc1F)N1CCN(C(=O)C2CC2)CC1` + CNC(C)C(=O)NC1CN(S(=O)(=O)c2cccc(S(=O)(=O)N3CCC4CCC(C(=O)NC(c5ccccc5)c5ccccc5)N4C(=O)C(NC(=O)C(C)NC)C3)c2)CCC2CCC(C(=O)NC(c3ccccc3)c3ccccc3)N2C1=O, the IC50 (curve of first compound, second compound 0.01 µM) stood at 404 nM; the half-maximal inhibitory concentration (IC50) (curve of first compound, second compound 0.0316 µM) is less than 31.6 nM; the IC50 under setting [1] was less than 31.6 nM; the IC50 under setting [2] was less than 31.6 nM; the IC50 under setting [3] was less than 31.6 nM. Further, the viability, T/C (second compound 0.01 µM, first compound 0.0316 µM) was 60.7%; the viability, T/C (second compound 0.01 µM, first compound 0.1 µM) was 48.4%; the viability, T/C (second compound 0.01 µM, first compound 0.316 µM) is 49.6%; the viability, T/C (second compound 0.01 µM, first compound 1 µM) is 39.4%; the viability, T/C (second compound 0.01 µM, first compound 3.16 µM) was 13.2%; the viability, T/C (second compound 0.01 µM, first compound 10 µM) was 16.7%. In addition, the viability, T/C is, setting by setting: (second compound 0.0316 µM, first compound 0.0316 µM) 45.8%; (second compound 0.0316 µM, first compound 0.1 µM) 49.9%; (second compound 0.0316 µM, first compound 0.316 µM) 46.4%; (second compound 0.0316 µM, first compound 1 µM) 34.5%; (second compound 0.0316 µM, first compound 3.16 µM) 16.7%; (second compound 0.0316 µM, first compound 10 µM) 18.1%. For the same compound, the viability, T/C was 42% under setting [4]; 40.2% under setting [5]; 26.7% under setting [6]; 27.8% under setting [7]; 11.1% (second compound 0.1 µM, first compound 3.16 µM); 12.8% (second compound 0.1 µM, first compound 10 µM). Also, the viability, T/C by setting is: under setting [8], 40%; under setting [9], 38.9%; under setting [10], 36.8%; under setting [11], 26.6%; (second compound 0.316 µM, first compound 3.16 µM) 11.3%; (second compound 0.316 µM, first compound 10 µM) 12.2%. Further, the viability, T/C was 32.2% under setting [12]; 36.8% under setting [13]; 32.5% under setting [14]; 26.1% under setting [15]; 10.8% (second compound 1 µM, first compound 3.16 µM); 10.9% (second compound 1 µM, first compound 10 µM).
Take `O=C(c1ccc(F)c(F)c1Nc1ccc(I)cc1F)N1CC(O)([C@@H]2CCCCN2)C1` + Cc1c(S(C)(=O)=O)c(-c2cc(F)cc(N3CCN(c4ccc(NS(=O)(=O)c5ccc(NC(CCN6CCC(C(=O)OCCCP(=O)(O)O)CC6)CSc6ccccc6)c(S(=O)(=O)C(F)(F)F)c5)cc4)CC3)c2)c(-c2ccc(Cl)cc2)n1C(C)C: the IC50 under setting [1] was less than 3.16 nM; the IC50 under setting [2] was less than 3.16 nM; the IC50 under setting [3] is less than 3.16 nM; the IC50 under setting [16] is less than 3.16 nM; the IC50 under setting [17] is less than 3.16 nM. Besides, the viability, T/C was 14.8% under setting [18]; 13.6% under setting [19]; 17.2% under setting [4]; 11% under setting [5]; 6.6% under setting [6]; 1.12% under setting [7]. Besides, the viability, T/C is 9.21% under setting [20]; 11.2% under setting [21]; 11% under setting [8]; 8.03% under setting [9]; 4.04% under setting [10]; 0.96% under setting [11]. Besides, the viability, T/C reads like this: under setting [22], 8.77%; under setting [23], 14.6%; under setting [12], 6.89%; under setting [13], 7.25%; under setting [14], 3.29%; under setting [15], 0.52%. The viability, T/C is, setting by setting: under setting [24], 7.36%; under setting [25], 7.93%; under setting [26], 7.81%; under setting [27], 5.28%; under setting [28], 1.59%; under setting [29], 0.38%. For the same compound, the viability, T/C was 5.3% under setting [30]; 4.85% under setting [31]; 4.39% under setting [32]; 2.53% under setting [33]; 1.08% under setting [34]; 0.6% under setting [35].
In the case of `CNC(C)C(=O)NC1CN(S(=O)(=O)c2cccc(S(=O)(=O)N3CCC4CCC(C(=O)NC(c5ccccc5)c5ccccc5)N4C(=O)C(NC(=O)C(C)NC)C3)c2)CCC2CCC(C(=O)NC(c3ccccc3)c3ccccc3)N2C1=O` (centres undefined) + Cc1c(S(C)(=O)=O)c(-c2cc(F)cc(N3CCN(c4ccc(NS(=O)(=O)c5ccc(NC(CCN6CCC(C(=O)OCCCP(=O)(O)O)CC6)CSc6ccccc6)c(S(=O)(=O)C(F)(F)F)c5)cc4)CC3)c2)c(-c2ccc(Cl)cc2)n1C(C)C, the IC50 under setting [1] was less than 3.16 nM; the IC50 under setting [2] was less than 3.16 nM; the IC50 under setting [3] is less than 3.16 nM; the IC50 under setting [16] was less than 3.16 nM; the IC50 under setting [17] was less than 3.16 nM. Besides, the viability, T/C was 11.9% under setting [18]; 9.77% under setting [19]; 7.82% under setting [4]; 7.58% under setting [5]; 5.36% under setting [6]; 6.51% under setting [7]. Moreover, the viability, T/C under setting [20] was 8.42%; the viability, T/C under setting [21] was 7.07%; the viability, T/C under setting [8] was 8.09%; the viability, T/C under setting [9] was 5.52%; the viability, T/C under setting [10] was 3.69%; the viability, T/C under setting [11] is 5.21%. In addition, the viability, T/C runs as follows: under setting [22], 7.09%; under setting [23], 5.98%; under setting [12], 4.86%; under setting [13], 4.96%; under setting [14], 4.99%; under setting [15], 4.12%. Further, the viability, T/C by setting is: under setting [24], 4.15%; under setting [25], 4.41%; under setting [26], 3.7%; under setting [27], 4.89%; under setting [28], 2.21%; under setting [29], 3.61%. The viability, T/C is 5.31% under setting [30]; 4.19% under setting [31]; 2.98% under setting [32]; 3.4% under setting [33]; 2.94% under setting [34]; 2.34% under setting [35].
In the case of `O=C(c1ccc(F)c(F)c1Nc1ccc(I)cc1F)N1CC(O)([C@@H]2CCCCN2)C1`, the viability, T/C reads like this: (compound 0.00316 µM) 91.5% and 92.7% and 97.3%; (compound 0.01 µM) 76.6% and 84.3% and 100%; (compound 0.0316 µM) 91.3% and 70.7% and 83.2%; (compound 0.1 µM) 77.7% and 78.5% and 78%; (compound 0.316 µM) 85% and 95.7% and 75.4%; (compound 1 µM) 20.7% and 36.6% and 40.9%. Besides, the IC50 (curve of compound) is 589 nM and 729 nM and 730 nM.
